Here are results for eleven compounds from patent US8178577B2, “Tricyclic derivatives as potent and selective histone deacetylase inhibitors” (Shenzhen Chipscreen Biosciences Ltd., priority 2008, dated 2012).

The structures appear in SMILES notation.

The subject of assay [1] is HDAC Class I. Briefly: P21 reporter gene assay in HeLa cells. The class given is cell-based. The following applies: relative to SAHA, 24 hours. The protocol:
(§1) HDAC subtype selectivity inhibition assay of tested compounds was carried out by several reporter gene assays experiments. Briefly, HeLa cells were seeded in 96-well plates the day before transfection to give a confluence of 50-80%. Cells were transfected with one of reporter gene plasmids containing a promoter sequences or response elements upstream of a luciferase gene construct using FuGene6 transfection reagent according to the manufacturer's instructions (Roche). The promoter or response elements including p21-promoter, gdf11-promoter, serum response element (SRE), MEF-binding element were fused upstream to the luciferase gene reporter construct. For normalizing the transfection efficiency, a GFP expression plasmid was cotransfected. Cells were allowed to express protein for 24 hours followed by addition of individual compounds or the vehicle (DMSO). 24 hours later the cells were harvested, and the luciferase assays were performed using the luciferase assay kit according to the manufacturer's instructions (Promega). To normalize the data from the luciferase assays, β-galactosidase activity from transfected cells was measured using a kit (Promega) as instructed by the manufacturer.

In assay [2] the target is T1, HDAC3 (Homo sapiens, UniProt O15379).
T1 construct: endogenous in cells; host or cells: HeLa
The assay can be described thus: gdf11 reporter gene assay in HeLa cells. The following applies: for activation at 10 µM: HeLa, 24 h, read-out: % of SAHA Response for HDAC3 at 10 μM (gdf11 reporter gene). In kind it is cell-based. On the procedure: as §1
For orientation: A reporter such as luciferase makes a cellular process visible.

The subject of assay [3] is HDAC4/5. The assay can be described thus: MEF2 reporter gene assay in HeLa cells. The settings on record: relative to SAHA, 24 hours. The class given is cell-based. The protocol: as §1
For assay [4], the target named is T2, HDAC7 (Homo sapiens, UniProt Q8WUI4).
T2 construct: endogenous in cells; host or cells: HeLa
T2 sequence (Q8WUI4 1-952): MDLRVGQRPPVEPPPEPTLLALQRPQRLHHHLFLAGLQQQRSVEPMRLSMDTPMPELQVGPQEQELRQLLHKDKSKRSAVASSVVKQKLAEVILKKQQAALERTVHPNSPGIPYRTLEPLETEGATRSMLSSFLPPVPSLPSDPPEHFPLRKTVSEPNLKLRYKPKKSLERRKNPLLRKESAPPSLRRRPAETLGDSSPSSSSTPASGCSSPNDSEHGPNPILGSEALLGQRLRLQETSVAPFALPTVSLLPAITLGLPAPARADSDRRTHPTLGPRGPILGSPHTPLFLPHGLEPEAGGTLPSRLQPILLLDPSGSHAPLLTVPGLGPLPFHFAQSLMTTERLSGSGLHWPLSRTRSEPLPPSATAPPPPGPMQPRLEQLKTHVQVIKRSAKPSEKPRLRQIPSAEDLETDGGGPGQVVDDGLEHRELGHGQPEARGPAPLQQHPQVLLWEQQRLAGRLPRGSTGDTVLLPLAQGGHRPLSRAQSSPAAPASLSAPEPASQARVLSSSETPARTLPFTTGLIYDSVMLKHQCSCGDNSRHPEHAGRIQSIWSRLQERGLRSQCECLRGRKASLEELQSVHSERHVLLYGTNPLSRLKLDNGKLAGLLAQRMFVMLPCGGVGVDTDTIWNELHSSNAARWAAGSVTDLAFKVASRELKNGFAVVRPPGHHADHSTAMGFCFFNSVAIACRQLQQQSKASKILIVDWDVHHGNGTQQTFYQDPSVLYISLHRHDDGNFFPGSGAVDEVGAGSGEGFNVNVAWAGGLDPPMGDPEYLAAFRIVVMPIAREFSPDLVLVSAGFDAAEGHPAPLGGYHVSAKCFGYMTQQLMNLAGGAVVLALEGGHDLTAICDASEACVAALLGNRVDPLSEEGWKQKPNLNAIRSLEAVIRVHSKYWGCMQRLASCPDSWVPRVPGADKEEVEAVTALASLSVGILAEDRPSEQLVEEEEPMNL
The assay can be described thus: Nur77 reporter gene assay in HeLa cells. The settings on record: for activation at 10 µM: HeLa, 24 h, read-out: % of SAHA Response for HDAC7 at 10 μM (Nur77 reporter gene). The class given is cell-based. The protocol: as §1

Assay [5] concerns total HDAC enzyme. The assay can be described thus: In vitro inhibition of total HDAC enzyme activity (BIOMOL HDAC Fluorimetric Assay/Drug Discovery Kit, HeLa extract). In kind it is biochemical. On the procedure: Measurement of In Vitro Inhibition of Total HDAC Enzyme Activity:
The in vitro inhibition of total HDAC enzyme was determined by HDAC Fluorimetric Assay/Drug Discovery Kit (BIOMOL) according to manufacture's instruction. • 1. Add Assay buffer, diluted trichostatin A or test inhibitor to appropriate wells of the microtiter plate. Following table lists examples of various assay types and the additions required for each test.
• 2. Add diluted HeLa extract or other HDAC sample to all wells except those that are to be “No Enzyme Controls” (Blank). • 3. Allow diluted Fluor de LYS™ Substrate and the samples in the microtiter plate to equilibrate to assay temperature (25° C.). • 4. Initiate HDAC reactions by adding diluted substrate (25 μl) to each well and mixing thoroughly. • 5. Allow HDAC reactions to proceed for desired length of time and then stop them by addition of Fluor de Lys™ Developer (50 μl). Incubate plate at room temperature (25° C.) for 10-15 min. • 6. Read samples in a microtiter-plate reading fluorimeter capable of excitation at a wavelength in the range 350-380 nm and detection of emitted light in the range 440-460 nm. Measurement of In Vivo Inhibition of HDAC Subtype Activity: […]

The test system of assay [6] is Hut-78. Briefly: Cell proliferation (MTS), Hut-78. The class given is cell-based. The following applies: Homo sapiens, HuT78, 72 hours. The protocol: (§2) Measurement of In Vivo Cell Proliferation:
(§3) Tumor cells were trypsinized and plated into 96-well plates at 3,000 per well and incubated in complete medium with 10% FBS for 24 hours. Compounds were added over a final concentration range of 100 μmol/L to 100 nmol/L in 0.1% DMSO and incubated for 72 hours in complete medium. The effects on proliferation were determined by addition of MTS reagent (Promega) according to the instruction, incubation for 2 hours at 37° C. in CO2 incubator, and record the absorbance at 490 nm using an ELISA plate reader.

The subject of assay [7] is HL60. Briefly: Cell proliferation (MTS), HL60. The class given is cell-based. The following applies: Homo sapiens, HL-60, 72 hours. The protocol: as §2, §3
Assay [8] deals with HeLa. The assay can be described thus: Cell proliferation (MTS), HeLa. The class given is cell-based. The settings on record: Homo sapiens, 72 hours. On the procedure:
as §2, §3

The test system of assay [9] is A549. Briefly: Cell proliferation (MTS), A549. The class given is cell-based. The following applies: Homo sapiens, 72 hours. The protocol: as §2, §3

T1 sequence (O15379 whole entry): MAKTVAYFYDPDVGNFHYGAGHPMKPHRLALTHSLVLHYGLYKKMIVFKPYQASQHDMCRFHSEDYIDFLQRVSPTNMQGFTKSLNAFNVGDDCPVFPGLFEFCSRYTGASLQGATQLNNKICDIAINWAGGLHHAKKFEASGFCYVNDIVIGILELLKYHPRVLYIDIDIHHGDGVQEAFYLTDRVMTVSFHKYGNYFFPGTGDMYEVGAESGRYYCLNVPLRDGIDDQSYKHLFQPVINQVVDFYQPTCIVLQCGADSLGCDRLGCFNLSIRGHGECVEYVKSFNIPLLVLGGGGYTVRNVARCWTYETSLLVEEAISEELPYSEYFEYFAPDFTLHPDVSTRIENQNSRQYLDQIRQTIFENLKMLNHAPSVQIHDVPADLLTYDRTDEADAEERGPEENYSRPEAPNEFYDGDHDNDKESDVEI
T1 sequence (Q9Y618 whole entry partner): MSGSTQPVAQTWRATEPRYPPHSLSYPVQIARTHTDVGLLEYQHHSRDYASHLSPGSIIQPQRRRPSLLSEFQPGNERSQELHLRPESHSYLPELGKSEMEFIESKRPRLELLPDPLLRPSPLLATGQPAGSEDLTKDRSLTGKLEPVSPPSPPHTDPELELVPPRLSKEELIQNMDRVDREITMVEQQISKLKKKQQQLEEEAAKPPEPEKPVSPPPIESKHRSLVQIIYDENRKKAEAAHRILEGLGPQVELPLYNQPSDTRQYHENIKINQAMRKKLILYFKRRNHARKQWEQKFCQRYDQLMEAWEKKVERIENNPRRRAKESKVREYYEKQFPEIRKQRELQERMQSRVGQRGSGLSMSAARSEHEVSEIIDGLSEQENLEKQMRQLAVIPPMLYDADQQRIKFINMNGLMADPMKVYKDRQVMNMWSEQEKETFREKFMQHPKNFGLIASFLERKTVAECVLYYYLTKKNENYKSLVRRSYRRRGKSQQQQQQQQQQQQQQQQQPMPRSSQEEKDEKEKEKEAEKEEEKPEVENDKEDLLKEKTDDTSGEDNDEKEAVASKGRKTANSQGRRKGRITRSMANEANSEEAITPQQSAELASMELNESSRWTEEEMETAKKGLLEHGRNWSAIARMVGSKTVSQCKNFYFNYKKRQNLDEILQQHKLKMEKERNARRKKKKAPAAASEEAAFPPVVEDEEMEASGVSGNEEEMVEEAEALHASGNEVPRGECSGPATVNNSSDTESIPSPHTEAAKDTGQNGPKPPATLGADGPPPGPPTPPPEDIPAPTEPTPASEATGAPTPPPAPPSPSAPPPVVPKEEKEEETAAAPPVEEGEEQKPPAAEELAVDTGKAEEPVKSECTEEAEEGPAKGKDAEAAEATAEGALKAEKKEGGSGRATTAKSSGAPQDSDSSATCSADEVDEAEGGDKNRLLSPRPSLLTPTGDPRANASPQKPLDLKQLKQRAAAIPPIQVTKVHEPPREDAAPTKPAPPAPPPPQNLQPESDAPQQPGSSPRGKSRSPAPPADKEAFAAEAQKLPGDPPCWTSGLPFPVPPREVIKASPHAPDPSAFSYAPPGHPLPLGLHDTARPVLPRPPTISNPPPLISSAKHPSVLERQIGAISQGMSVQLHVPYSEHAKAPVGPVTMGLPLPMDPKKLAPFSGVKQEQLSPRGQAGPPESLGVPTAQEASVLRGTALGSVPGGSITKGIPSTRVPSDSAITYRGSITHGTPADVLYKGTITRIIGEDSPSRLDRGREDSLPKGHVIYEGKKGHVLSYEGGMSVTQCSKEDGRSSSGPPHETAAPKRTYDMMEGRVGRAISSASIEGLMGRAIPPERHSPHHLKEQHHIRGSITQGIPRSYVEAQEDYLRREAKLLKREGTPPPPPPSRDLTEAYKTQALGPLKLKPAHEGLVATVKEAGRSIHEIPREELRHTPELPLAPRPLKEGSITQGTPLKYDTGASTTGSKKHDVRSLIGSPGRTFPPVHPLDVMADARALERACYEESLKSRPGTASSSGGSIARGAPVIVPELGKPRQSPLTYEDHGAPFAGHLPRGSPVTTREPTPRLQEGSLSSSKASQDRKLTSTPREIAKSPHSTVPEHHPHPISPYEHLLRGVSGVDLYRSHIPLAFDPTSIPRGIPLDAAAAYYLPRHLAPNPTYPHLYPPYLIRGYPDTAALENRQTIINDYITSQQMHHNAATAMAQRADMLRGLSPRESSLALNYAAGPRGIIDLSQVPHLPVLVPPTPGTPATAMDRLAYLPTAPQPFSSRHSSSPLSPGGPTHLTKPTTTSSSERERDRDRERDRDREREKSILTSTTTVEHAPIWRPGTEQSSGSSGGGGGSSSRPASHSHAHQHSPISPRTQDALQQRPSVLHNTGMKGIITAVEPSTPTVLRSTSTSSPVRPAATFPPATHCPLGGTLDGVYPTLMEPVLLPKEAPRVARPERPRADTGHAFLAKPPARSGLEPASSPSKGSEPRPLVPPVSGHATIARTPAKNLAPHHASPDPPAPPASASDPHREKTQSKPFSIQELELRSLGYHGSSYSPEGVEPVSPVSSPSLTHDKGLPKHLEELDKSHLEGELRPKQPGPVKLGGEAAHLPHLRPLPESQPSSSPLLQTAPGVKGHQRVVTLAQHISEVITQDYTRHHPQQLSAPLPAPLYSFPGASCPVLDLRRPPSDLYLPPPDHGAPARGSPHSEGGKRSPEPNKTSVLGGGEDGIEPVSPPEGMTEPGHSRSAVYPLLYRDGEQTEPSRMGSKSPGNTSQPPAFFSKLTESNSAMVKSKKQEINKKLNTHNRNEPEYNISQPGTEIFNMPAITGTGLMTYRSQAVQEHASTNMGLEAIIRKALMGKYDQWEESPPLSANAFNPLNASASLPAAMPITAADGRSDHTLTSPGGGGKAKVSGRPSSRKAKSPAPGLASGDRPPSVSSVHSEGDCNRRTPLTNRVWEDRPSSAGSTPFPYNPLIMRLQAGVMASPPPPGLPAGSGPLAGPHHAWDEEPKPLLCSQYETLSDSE

For the compound `O=C(CCCCCCC(=O)Nc1ccccc1)NO` [SAHA, suberoylanilide hydroxamic acid, reference compound], in assay [1], the “% of SAHA Response for HDAC Class I at 10 μM (P21 reporter gene)” value (from here on “% of SAHA Response for HDAC Class I”) was determined as 100%. Moreover, the “% of SAHA Response for HDAC3 at 10 μM (gdf11 reporter gene)” value in assay [2] (10 μM, relative to SAHA, HeLa cells, 24 hours) was determined as 100%. Besides, the “% of SAHA Response for HDAC4/5 at 10 μM (MEF2 reporter gene)” value (“% of SAHA Response for HDAC4/5 at 10 μM” below) in assay [3] was 100%. For the same compound, in assay [4], the “% of SAHA Response for HDAC7 at 10 μM (Nur77 reporter gene)” value is recorded as 100%.
Turning to `Nc1cc(F)ccc1NC(=O)CCCCNC(=O)C=C1c2ccccc2-c2ccccc21` [Example 8, 5-(2-(9H-fluoren-9-ylidene)acetamido)-N-(2-amino-4-fluorophenyl)pentanamide], the “% of Inhibition on total HDAC enzyme at 30 μM” value (“% of Inhibition” for short) in assay [5] was found to be 31.7%. Further, in assay [1], the “% of SAHA Response for HDAC Class I” value worked out at 16%. In addition, the activation at 10 µM in assay [2] is 10%; in assay [4], 7%. In assay [3], the “% of SAHA Response for HDAC4/5 at 10 μM” value is 30%.
For `Nc1cc(F)ccc1NC(=O)CCCCCCCNC(=O)C=C1c2ccccc2-c2ccccc21` [Example 27, 8-(2-(9H-fluoren-9-ylidene)acetamido)-N-(2-amino-4-fluorophenyl)octanamide] the same measures were 42.3%, 18%, 12%, 7% and 16%.
For `Nc1ccccc1NC(=O)CCCCCCCNC(=O)C=C1c2ccccc2-c2ccccc21` [Example 28, 8-(2-(9H-fluoren-9-ylidene)acetamido)-N-(2-aminophenyl)octanamide], in [5], the “% of Inhibition” value was found to be 48%. For the same compound, the “% of SAHA Response for HDAC Class I” value in assay [1] worked out at 62%. Also, the values for the activation at 10 µM in assay [2] and in [4] were 33% and 20%, respectively. Further, the “% of SAHA Response for HDAC4/5 at 10 μM” value in assay [3] is given as 38%.
Turning to `COc1ccc(NC(=O)CCCCCNC(=O)C=C2c3ccccc3-c3ccccc32)c(N)c1` [Example 16, 6-(2-(9H-fluoren-9-ylidene)acetamido)-N-(2-amino-4-methoxyphenyl)hexanamide], the “% of Inhibition” value in assay [5] turned out to be 29.2%. Besides, the “% of SAHA Response for HDAC Class I” value in assay [1] came to 21%. Further, the activation at 10 µM came to 12% in assay [2] and 10% in [4]. The “% of SAHA Response for HDAC4/5 at 10 μM” value in assay [3] is listed as 27%.
With `Nc1ccccc1NC(=O)CCCCNC(=O)C=C1c2ccccc2-c2ccccc21` [Example 7, 5-(2-(9H-fluoren-9-ylidene)acetamido)-N-(2-aminophenyl)pentanamide], in assay [5], the “% of Inhibition” value came to 42%. Also, the “% of SAHA Response for HDAC Class I” value in [1] was 49%. In addition, the figures for the activation at 10 µM in assay [2] and in assay [4] were 36% and 19%, respectively. In assay [3], the “% of SAHA Response for HDAC4/5 at 10 μM” value is 31%.
Regarding `O=C(C=C1c2ccccc2-c2ccccc21)NCCCCCCCC(=O)NO` [Example 26, 8-(2-(9H-fluoren-9-ylidene)acetamido)-N-hydroxyoctanamide], in assay [5], the “% of Inhibition” value is on record as 99.3%. Besides, in assay [1], the “% of SAHA Response for HDAC Class I” value is given as 61%. Moreover, the activation at 10 µM in [2] was 70%; in assay [4], 89%. Besides, the “% of SAHA Response for HDAC4/5 at 10 μM” value in assay [3] was found to be 87%.
Consider `Nc1cc(Cl)ccc1NC(=O)CCCCCNC(=O)C=C1c2ccccc2-c2ccccc21` [Example 14, 6-(2-(9H-fluoren-9-ylidene)acetamido)-N-(2-amino-4-chlorophenyl)hexanamide], for which the “% of SAHA Response for HDAC Class I” value in [1] came to 13%. Besides, the activation at 10 µM in assay [2] came out at 6%; in [4] it was 4%. Further, the “% of SAHA Response for HDAC4/5 at 10 μM” value in assay [3] worked out at 9%.
Regarding `Cc1ccc(NC(=O)CCCCCNC(=O)C=C2c3ccccc3-c3ccccc32)c(N)c1` [Example 15, 6-(2-(9H-fluoren-9-ylidene)acetamido)-N-(2-amino-4-methylphenyl)hexanamide], the “% of Inhibition” value in assay [5] turned out to be 42.4%. Also, the “% of SAHA Response for HDAC Class I” value in [1] is on record as 21%. Also, the activation at 10 µM in assay [2] was 14%; in assay [4], 4%. The “% of SAHA Response for HDAC4/5 at 10 μM” value in assay [3] is 15%.
Broadly, the GI50 is the concentration giving 50% growth inhibition. Read a low GI50 as more potent growth inhibition. With `O=C(C=C1c2ccccc2-c2ccccc21)NCCCCCC(=O)NO` [Example 11, 6-(2-(9H-fluoren-9-ylidene)acetamido)-N-hydroxyhexanamide], the “% of Inhibition” value in assay [5] was 99%. Also, the “% of SAHA Response for HDAC Class I” value in [1] amounted to 77%. The concentration for 50% growth inhibition (GI50) in [6] is below 0.1 µM; in assay [7], below 0.1 µM; in assay [8] it was 0.52 µM; in assay [9], 2.34 µM.
Consider `Nc1cc(C(F)(F)F)ccc1NC(=O)CCCCCNC(=O)C=C1c2ccccc2-c2ccccc21` [Example 17, 6-(2-(9H-fluoren-9-ylidene)acetamido)-N-(2-amino-4-trifluoromethylphenyl)hexanamide], for which the “% of Inhibition” value in [5] turned out to be 24.1%. For the same compound, the “% of SAHA Response for HDAC Class I” value in assay [1] amounted to 12%. For the same compound, the activation at 10 µM in assay [2] and in assay [4] was 7% in each case. Also, the “% of SAHA Response for HDAC4/5 at 10 μM” value in assay [3] is listed as 21%.
